Data as given in ChEMBL document CHEMBL1201862, “PubChem BioAssay data set” (2004).
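Step 1: Grow cells in 96-well plates. Step 2: Expose to compound for 48 hours at 5 concentrations. Step 3: Interpolate endpoints linearly; if unreached, use highest concentration. GI50 = concentration required for 50% inhibition of growth.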 Calls of active or inactive are those of the source. No stated cut-off is given here; in the data, active = GI50 up to about 1.1 µM and inactive = higher.

Tests used:
Test in all cases: NCI-60 cell line screen, 48 h
U-251 = tested on: U-251
OVCAR-3 = tested on: OVCAR-3
SK-OV-3 = tested on: SK-OV-3
SF-539 = tested on: SF-539
HOP-92 = tested on: HOP-92
SF-295 = tested on: SF-295
HT-29 = tested on: HT-29
NCI-H522 = tested on: NCI-H522
UACC-62 = tested on: UACC-62
CCRF-CEM = tested on: CCRF-CEM
HCT-116 = tested on: HCT-116
ACHN = tested on: ACHN
NCI-H460 = tested on: NCI-H460
M14 = tested on: M14
DU-145 = tested on: DU-145
MDA-MB-231 = tested on: MDA-MB-231
HOP-62 = tested on: HOP-62
SNB-75 = tested on: SNB-75
OVCAR-8 = tested on: OVCAR-8

Measured: GI50

CSc1cnc2ccccc2c1SC1CN(Cc2ccccc2)c2ccccc2C1=O (centres undefined)
inactive: U-251 > 100 µM | OVCAR-3 > 100 µM | SK-OV-3 > 100 µM | SF-539 > 100 µM | HOP-92 > 100 µM | SF-295 > 100 µM | HT-29 47.9 µM | NCI-H522 > 100 µM | UACC-62 > 100 µM | CCRF-CEM > 100 µM | HCT-116 > 100 µM | ACHN > 100 µM | NCI-H460 > 100 µM | M14 > 100 µM | DU-145 > 100 µM | MDA-MB-231 > 100 µM | HOP-62 32.1 µM | SNB-75 83.4 µM

Cc1ccc([S+]([O-])/C=C(\NC(=O)OCc2ccccc2)C(F)(F)F)cc1 (centres undefined)
inactive: U-251 18.6 µM | OVCAR-3 43.6 µM | SK-OV-3 > 100 µM | SF-539 26.7 µM | HOP-92 55.8 µM | SF-295 39.8 µM | HT-29 32.1 µM | NCI-H522 29.8 µM | UACC-62 35.2 µM | CCRF-CEM 31.6 µM | HCT-116 45.7 µM | ACHN 17.8 µM | NCI-H460 41.4 µM | M14 > 100 µM | DU-145 77.3 µM | MDA-MB-231 55.2 µM | OVCAR-8 36.9 µM | SNB-75 18.8 µM

N#CCCN(CCN(C(=O)Nc1ccccc1)c1ccccc1)C(=O)Nc1ccccc1
inactive: U-251 65.6 µM | OVCAR-3 > 100 µM | SK-OV-3 > 100 µM | SF-539 > 65 µM | HOP-92 > 63 µM | SF-295 62.5 µM | HT-29 > 100 µM | NCI-H522 > 55.3 µM | UACC-62 65 µM | CCRF-CEM 17.7 µM | HCT-116 54.6 µM | ACHN 52.1 µM | NCI-H460 > 67.5 µM | M14 77.6 µM | MDA-MB-231 > 100 µM | OVCAR-8 64.3 µM | HOP-62 > 100 µM | SNB-75 > 100 µM

CCC12C=CCN3CCC4(C(=C(C(=O)OC)[C@@H]1O)Nc1ccccc14)C32 (some centres undefined)
inactive: U-251 2.24 µM | OVCAR-3 1.99 µM | SK-OV-3 2.43 µM | SF-539 2.07 µM | HOP-92 1.6 µM | SF-295 2.05 µM | HT-29 1.98 µM | NCI-H522 1.61 µM | UACC-62 1.77 µM | CCRF-CEM 1.76 µM | HCT-116 1.57 µM | ACHN 1.56 µM | NCI-H460 1.87 µM | M14 2.2 µM | OVCAR-8 2.04 µM | HOP-62 2.12 µM | SNB-75 1.9 µM

CCOC(=O)Cc1nc(/C(C#N)=C/c2ccco2)[nH]c(=O)c1C#N
inactive: U-251 > 100 µM | OVCAR-3 > 100 µM | SK-OV-3 > 100 µM | SF-539 > 100 µM | HOP-92 > 100 µM | SF-295 43.9 µM | HT-29 > 100 µM | NCI-H522 39.2 µM | UACC-62 35.4 µM | CCRF-CEM > 100 µM | HCT-116 > 100 µM | ACHN > 100 µM | NCI-H460 > 100 µM | M14 > 100 µM | OVCAR-8 > 100 µM | HOP-62 > 100 µM | SNB-75 > 100 µM

O=C(NNC(c1ccccc1)C(F)(F)F)c1ccncc1 (centres undefined)
inactive: U-251 > 100 µM | SF-539 > 100 µM | HOP-92 > 100 µM | SF-295 > 100 µM | HT-29 > 100 µM | NCI-H522 > 100 µM | CCRF-CEM > 100 µM | HCT-116 > 100 µM | ACHN > 100 µM | NCI-H460 > 100 µM | M14 > 100 µM | DU-145 > 100 µM | MDA-MB-231 > 100 µM | OVCAR-8 > 100 µM | HOP-62 > 100 µM | SNB-75 > 100 µM
